Peptide text beside a SMILES is read from it.
Test system: not listed separately
Assay: Biological activity for bradykinin potentiating pentapeptide as the logarithm of the relative activity index compared to the reference molecule (Val-Glu-Ser-Ser-Lys).
Type: functional
Details: not given

Compound | Log RAI
H-VESSK-OH | 0
H-RYLPT-OH | 0.4
H-FSPFR-OH | 0.64
H-VAWAK-OH | 1.45
H-VKWAA-OH | 1.71
H-VEFAK-OH | 1.57
H-LEAAK-OH | 0.4
H-VEAAP-OH | 0.18
H-VWAAK-OH | 0.04
H-VESAK-OH | 0.28
H-PGFSP-OH | 0.9
H-VKWAP-OH | 2.35
H-EKWAP-OH | 1.3
H-VEASK-OH | 0.2
H-VEHAK-OH | 1.53
H-VEWVK-OH | 1.71

Compound | Log RAI
H-VEWAK-OH | 2.73
H-FEAAK-OH | 0.3
H-VEGGK-OH | -1
H-AAWAA-OH | 0.75
H-GEAAK-OH | -0.52
H-VAWAA-OH | 1.43
H-VKAAK-OH | 0.11
H-VEAAK-OH | 0.51
C[C@H](N)C(=O)N[C@@H](C)C(=O)N[C@@H](Cc1ccc(O)cc1)C(=O)N[C@@H](C)C(=O)N[C@@H](C)C(=O)O | 0.46
H-VAAAK-OH | -0.1
NCC(=O)NCC(=O)NCC(=O)NCC(=O)NCC(=O)O | 0
H-VELAK-OH | 0.59
H-VAAWK-OH | 0.23
C[C@H](N)C(=O)N[C@@H](C)C(=O)N[C@@H](C)C(=O)N[C@@H](C)C(=O)N[C@@H](C)C(=O)O | -0.1
H-RKWAP-OH | 1.98

Molecular target: T1, Substance-K receptor (Rattus norvegicus, UniProt P16610)
T1 sequence (P16610 whole entry): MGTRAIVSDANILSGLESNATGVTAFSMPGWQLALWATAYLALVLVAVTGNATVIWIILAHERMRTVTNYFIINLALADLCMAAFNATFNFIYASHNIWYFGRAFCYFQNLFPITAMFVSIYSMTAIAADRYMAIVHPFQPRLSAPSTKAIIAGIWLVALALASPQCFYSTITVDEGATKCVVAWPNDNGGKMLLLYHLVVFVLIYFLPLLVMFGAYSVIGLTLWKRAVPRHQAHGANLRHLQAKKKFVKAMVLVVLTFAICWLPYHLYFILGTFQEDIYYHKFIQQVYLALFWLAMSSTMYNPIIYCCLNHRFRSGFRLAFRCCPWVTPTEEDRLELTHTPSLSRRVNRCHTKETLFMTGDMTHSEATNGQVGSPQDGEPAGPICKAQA
Assay: Antagonism against Tachykinin receptor 2 in rat vas deferens(RVD)
Type: functional
Details: read-out: pA2 (converted)

Compound | Kb
CC(C)C[C@H](NC(=O)[C@@H](Cc1c[nH]c2ccccc12)NC(=O)[C@@H](Cc1c[nH]c2ccccc12)NC(=O)[C@@H](NC(=O)[C@@H](Cc1c[nH]c2ccccc12)NC(=O)[C@H](Cc1ccc(O)cc1)NC(=O)[C@@H](N)CC(=O)O)C(C)C)C(=O)O | 0.0794 µM
CC(C)[C@H](NC(=O)[C@@H](Cc1c[nH]c2ccccc12)NC(=O)[C@H](Cc1ccc(O)cc1)NC(=O)[C@@H](N)CC(N)=O)C(=O)N[C@H](Cc1c[nH]c2ccccc12)C(=O)N[C@H](Cc1c[nH]c2ccccc12)C(=O)N[C@@H](CCCN=C(N)N)C(=O)O | 0.347 µM
CSCC[C@H](NC(=O)[C@@H](Cc1c[nH]c2ccccc12)NC(=O)[C@@H](Cc1c[nH]c2ccccc12)NC(=O)[C@@H](NC(=O)[C@@H](Cc1c[nH]c2ccccc12)NC(=O)[C@H](CO)NC(=O)[C@@H](N)CC(=O)O)C(C)C)C(=O)O | 1.95 µM
CC(C)[C@H](NC(=O)[C@@H](Cc1c[nH]c2ccccc12)NC(=O)[C@H](Cc1ccc(O)cc1)NC(=O)[C@@H](N)CC(=O)O)C(=O)NCC(=O)N[C@H](Cc1c[nH]c2ccccc12)C(=O)N[C@@H](CCCN=C(N)N)C(=O)O | 18.6 µM

Molecular target: T2, Substance-K receptor (Oryctolagus cuniculus, UniProt P79218)
T2 sequence (P79218 whole entry): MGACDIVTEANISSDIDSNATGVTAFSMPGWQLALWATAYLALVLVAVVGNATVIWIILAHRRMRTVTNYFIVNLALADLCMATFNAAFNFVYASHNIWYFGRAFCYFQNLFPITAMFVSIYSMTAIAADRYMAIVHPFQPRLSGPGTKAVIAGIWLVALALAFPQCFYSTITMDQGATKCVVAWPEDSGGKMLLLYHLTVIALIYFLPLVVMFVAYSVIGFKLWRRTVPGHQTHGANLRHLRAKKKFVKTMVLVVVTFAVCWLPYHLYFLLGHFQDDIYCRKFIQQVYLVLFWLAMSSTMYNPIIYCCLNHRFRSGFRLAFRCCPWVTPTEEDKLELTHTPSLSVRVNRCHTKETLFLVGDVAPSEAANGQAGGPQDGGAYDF
Assay: Antagonist activity against Tachykinin receptor 2 was measured by Rabbit pulmonary artery(RPA) assay.
Type: functional
Details: read-out: pA2 (converted)

Compound | Kb
CC(C)C[C@H](NC(=O)[C@@H](Cc1c[nH]c2ccccc12)NC(=O)[C@@H](Cc1c[nH]c2ccccc12)NC(=O)[C@@H](NC(=O)[C@@H](Cc1c[nH]c2ccccc12)NC(=O)[C@H](Cc1ccc(O)cc1)NC(=O)[C@@H](N)CC(=O)O)C(C)C)C(=O)O | 1.62 µM
CC(C)[C@H](NC(=O)[C@@H](Cc1c[nH]c2ccccc12)NC(=O)[C@H](Cc1ccc(O)cc1)NC(=O)[C@@H](N)CC(N)=O)C(=O)N[C@H](Cc1c[nH]c2ccccc12)C(=O)N[C@H](Cc1c[nH]c2ccccc12)C(=O)N[C@@H](CCCN=C(N)N)C(=O)O | 0.0646 µM
CSCC[C@H](NC(=O)[C@@H](Cc1c[nH]c2ccccc12)NC(=O)[C@@H](Cc1c[nH]c2ccccc12)NC(=O)[C@@H](NC(=O)[C@@H](Cc1c[nH]c2ccccc12)NC(=O)[C@H](CO)NC(=O)[C@@H](N)CC(=O)O)C(C)C)C(=O)O | 4.79 µM
CC(C)[C@H](NC(=O)[C@@H](Cc1c[nH]c2ccccc12)NC(=O)[C@H](Cc1ccc(O)cc1)NC(=O)[C@@H](N)CC(=O)O)C(=O)NCC(=O)N[C@H](Cc1c[nH]c2ccccc12)C(=O)N[C@@H](CCCN=C(N)N)C(=O)O | 19.5 µM
CC(C)[C@H](NC(=O)[C@@H](Cc1c[nH]c2ccccc12)NC(=O)[C@H](Cc1ccc(O)cc1)NC(=O)[C@@H](N)CCC(N)=O)C(=O)N[C@H](Cc1c[nH]c2ccccc12)C(=O)N[C@H](Cc1c[nH]c2ccccc12)C(=O)N[C@@H](Cc1ccccc1)C(=O)O | 1.66 µM
CC(C)[C@H](NC(=O)[C@@H](Cc1c[nH]c2ccccc12)NC(=O)[C@H](CCCCN)NC(=O)[C@@H](N)CC(=O)O)C(=O)N[C@H](Cc1c[nH]c2ccccc12)C(=O)N[C@H](Cc1c[nH]c2ccccc12)C(=O)N[C@@H](CCCCN)C(=O)O | 100 µM

Molecular target: T3, Substance-K receptor (Mesocricetus auratus, UniProt P51144)
T3 sequence (P51144 whole entry): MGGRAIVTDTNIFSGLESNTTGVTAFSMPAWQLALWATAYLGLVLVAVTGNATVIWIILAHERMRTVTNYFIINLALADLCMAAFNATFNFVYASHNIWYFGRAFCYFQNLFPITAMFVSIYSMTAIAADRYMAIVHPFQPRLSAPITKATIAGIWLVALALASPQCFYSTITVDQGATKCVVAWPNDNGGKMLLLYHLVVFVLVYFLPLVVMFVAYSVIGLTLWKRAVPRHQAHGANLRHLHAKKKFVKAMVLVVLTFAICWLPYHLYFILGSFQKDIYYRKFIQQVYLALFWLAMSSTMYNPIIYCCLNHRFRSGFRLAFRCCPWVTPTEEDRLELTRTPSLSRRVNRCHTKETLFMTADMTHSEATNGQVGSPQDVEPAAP
Assay: Antagonist activity against Tachykinin receptor 2 was measured by Hamster isolated trachea(HT) assay.
Type: functional, tissue-based
Details: read-out: pA2 (converted)

Compound | Kb
CC(C)C[C@H](NC(=O)[C@@H](Cc1c[nH]c2ccccc12)NC(=O)[C@@H](Cc1c[nH]c2ccccc12)NC(=O)[C@@H](NC(=O)[C@@H](Cc1c[nH]c2ccccc12)NC(=O)[C@H](Cc1ccc(O)cc1)NC(=O)[C@@H](N)CC(=O)O)C(C)C)C(=O)O | 1.2 µM
CC(C)[C@H](NC(=O)[C@@H](Cc1c[nH]c2ccccc12)NC(=O)[C@H](Cc1ccc(O)cc1)NC(=O)[C@@H](N)CC(N)=O)C(=O)N[C@H](Cc1c[nH]c2ccccc12)C(=O)N[C@H](Cc1c[nH]c2ccccc12)C(=O)N[C@@H](CCCN=C(N)N)C(=O)O | 1.17 µM
CSCC[C@H](NC(=O)[C@@H](Cc1c[nH]c2ccccc12)NC(=O)[C@@H](Cc1c[nH]c2ccccc12)NC(=O)[C@@H](NC(=O)[C@@H](Cc1c[nH]c2ccccc12)NC(=O)[C@H](CO)NC(=O)[C@@H](N)CC(=O)O)C(C)C)C(=O)O | 6.46 µM
CC(C)[C@H](NC(=O)[C@@H](Cc1c[nH]c2ccccc12)NC(=O)[C@H](Cc1ccc(O)cc1)NC(=O)[C@@H](N)CC(=O)O)C(=O)NCC(=O)N[C@H](Cc1c[nH]c2ccccc12)C(=O)N[C@@H](CCCN=C(N)N)C(=O)O | 6.31 µM
CC(C)[C@H](NC(=O)[C@@H](Cc1c[nH]c2ccccc12)NC(=O)[C@H](Cc1ccc(O)cc1)NC(=O)[C@@H](N)CCC(N)=O)C(=O)N[C@H](Cc1c[nH]c2ccccc12)C(=O)N[C@H](Cc1c[nH]c2ccccc12)C(=O)N[C@@H](Cc1ccccc1)C(=O)O | 1.74 µM
CC(C)[C@H](NC(=O)[C@@H](Cc1c[nH]c2ccccc12)NC(=O)[C@H](CCCCN)NC(=O)[C@@H](N)CC(=O)O)C(=O)N[C@H](Cc1c[nH]c2ccccc12)C(=O)N[C@H](Cc1c[nH]c2ccccc12)C(=O)N[C@@H](CCCCN)C(=O)O | 4.17 µM

Molecular target: Angiotensin-converting enzyme (Homo sapiens, UniProt P12821)
Sequence (P12821 whole entry): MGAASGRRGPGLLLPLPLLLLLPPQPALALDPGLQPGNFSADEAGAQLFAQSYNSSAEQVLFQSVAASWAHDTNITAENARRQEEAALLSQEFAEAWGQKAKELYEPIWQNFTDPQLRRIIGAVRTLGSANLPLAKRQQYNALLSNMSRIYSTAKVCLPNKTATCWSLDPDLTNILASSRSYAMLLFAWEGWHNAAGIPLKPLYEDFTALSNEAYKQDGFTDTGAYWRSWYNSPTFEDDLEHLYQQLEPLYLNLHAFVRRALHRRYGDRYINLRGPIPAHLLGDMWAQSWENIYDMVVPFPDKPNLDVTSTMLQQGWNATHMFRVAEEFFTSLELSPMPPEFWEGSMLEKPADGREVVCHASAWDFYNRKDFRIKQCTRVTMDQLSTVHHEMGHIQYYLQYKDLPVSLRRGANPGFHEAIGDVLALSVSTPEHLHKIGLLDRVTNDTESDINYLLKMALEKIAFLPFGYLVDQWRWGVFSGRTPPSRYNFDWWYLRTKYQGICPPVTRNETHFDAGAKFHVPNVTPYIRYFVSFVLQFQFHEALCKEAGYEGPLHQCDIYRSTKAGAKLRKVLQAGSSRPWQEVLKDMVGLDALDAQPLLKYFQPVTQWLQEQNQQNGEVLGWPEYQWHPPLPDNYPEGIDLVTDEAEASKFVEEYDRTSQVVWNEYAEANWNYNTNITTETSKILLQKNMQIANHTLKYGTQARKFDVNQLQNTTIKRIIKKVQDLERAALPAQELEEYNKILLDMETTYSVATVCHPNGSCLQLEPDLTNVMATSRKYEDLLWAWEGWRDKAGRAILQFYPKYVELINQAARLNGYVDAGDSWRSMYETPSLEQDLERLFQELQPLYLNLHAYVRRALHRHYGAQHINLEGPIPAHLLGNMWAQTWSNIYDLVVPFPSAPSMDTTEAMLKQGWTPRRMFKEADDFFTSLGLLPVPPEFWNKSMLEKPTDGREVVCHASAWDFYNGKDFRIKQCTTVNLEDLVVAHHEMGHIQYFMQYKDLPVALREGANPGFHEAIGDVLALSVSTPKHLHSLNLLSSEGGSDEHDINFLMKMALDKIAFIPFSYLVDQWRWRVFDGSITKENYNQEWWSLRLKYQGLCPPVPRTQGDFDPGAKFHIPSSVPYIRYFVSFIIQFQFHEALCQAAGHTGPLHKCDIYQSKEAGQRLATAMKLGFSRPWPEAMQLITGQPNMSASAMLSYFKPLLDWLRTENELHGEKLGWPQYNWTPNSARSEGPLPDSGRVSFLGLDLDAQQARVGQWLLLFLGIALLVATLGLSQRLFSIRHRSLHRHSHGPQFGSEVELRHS
Assay: Biological activity was measured against Angiotensin I converting enzyme
Details: read-out: Log 1/IC50 (converted)

Compound | IC50
NC(=O)CC[C@H](N)C(=O)NCC(=O)O (H-Gln-Gly-OH) | 7410 µM
CC[C@H](C)[C@H](N)C(=O)N1CCCC1C(=O)O (single isomer, unassigned) | 129 µM
NCC(=O)N[C@@H](CCC(N)=O)C(=O)O (H-Gly-Gln-OH) | 7080 µM
N=C(N)NCCC[C@H](NC(=O)[C@@H](N)Cc1ccccc1)C(=O)O (H-Phe-Arg-OH) | 912 µM

Source: ChEMBL document CHEMBL1128468, “Amino acid side chain descriptors for quantitative structure-activity relationship studies of peptide analogues” (J Med Chem, 1995)
